According to the supplement of paper PMC11061612:

Columns and labels:
Assay in all cases: Bliss excess, mean over the matrix (fraction); higher = more synergy
[1] = tested on: 22RV1 (Prostate Carcinoma)
Procedure, shortened: (§1)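 Cell lines grown in DMEM/F12 or RPMI with 10% FBS were plated in 1536-well plates and held 24 hours at 37°C, 5% CO2 before 72 hours of exposure to two-drug dose matrices, with DMSO typically at 0.2%. CellTiter-Glo 2.0 luminescence gave viability, which was converted to inhibition. Vehicle wells were set to 0 and blank wells to 1. Combination Emax is the second-highest inhibition in the matrix, and Bliss excess is the observed combination effect minus the expected EA + EB − EA·EB, where EA and EB are the single-agent effects.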

769-P (Kidney Carcinoma) = tested on: 769-P (Kidney Carcinoma)
Procedure, shortened: as §1

[2] = tested on: CAL-27 (Oral Cavity Carcinoma)
Procedure, shortened: as §1

[3] = tested on: CESS (Acute Myeloid Leukemia)
Procedure, shortened: as §1

[4] = tested on: DMS-53 (Small Cell Lung Carcinoma)
Procedure, shortened: as §1

EB2 (Burkitt's Lymphoma) = tested on: EB2 (Burkitt's Lymphoma)
Procedure, shortened: as §1

[5] = tested on: GCT (Other Solid Carcinomas)
Procedure, shortened: as §1

[6] = tested on: HCC1395 (Breast Carcinoma)
Procedure, shortened: as §1

[7] = tested on: HCC1428 (Breast Carcinoma)
Procedure, shortened: as §1

HCC70 (Breast Carcinoma) = tested on: HCC70 (Breast Carcinoma)
Procedure, shortened: as §1

[8] = tested on: HT55 (Colorectal Carcinoma)
Procedure, shortened: as §1

IM-9 (Non-Cancerous) = tested on: IM-9 (Non-Cancerous)
Procedure, shortened: as §1

[9] = tested on: JIMT-1 (Breast Carcinoma)
Procedure, shortened: as §1

[10] = tested on: JVM-2 (B-Cell Non-Hodgkin's Lymphoma)
Procedure, shortened: as §1

[11] = tested on: Jurkat (T-Lymphoblastic Leukemia)
Procedure, shortened: as §1

KP-N-YN (Neuroblastoma) = tested on: KP-N-YN (Neuroblastoma)
Procedure, shortened: as §1

[12] = tested on: KYSE-140 (Esophageal Squamous Cell Carcinoma)
Procedure, shortened: as §1

[13] = tested on: MDA-MB-436 (Breast Carcinoma)
Procedure, shortened: as §1

[14] = tested on: OACp4C (Esophageal Adenocarcinoma)
Procedure, shortened: as §1

[15] = tested on: SK-HEP-1 (Hepatocellular Carcinoma)
Procedure, shortened: as §1

SMILES	Bliss excess [1]	Bliss excess (769-P (Kidney Carcinoma))	Bliss excess [2]	Bliss excess [3]	Bliss excess [4]	Bliss excess (EB2 (Burkitt's Lymphoma))	Bliss excess [5]	Bliss excess [6]	Bliss excess [7]	Bliss excess (HCC70 (Breast Carcinoma))	Bliss excess [8]	Bliss excess (IM-9 (Non-Cancerous))	Bliss excess [9]	Bliss excess [10]	Bliss excess [11]	Bliss excess (KP-N-YN (Neuroblastoma))	Bliss excess [12]	Bliss excess [13]	Bliss excess [14]	Bliss excess [15]
Cn1cnc2c(F)c(Nc3ccc(Br)cc3Cl)c(C(=O)NOCCO)cc21 [Selumetinib] + C[C@@H]1COCCN1C2=NC(=NC(=C2)C3(CC3)[S@](=N)(=O)C)C4=C5C=CNC5=NC=C4 [AZD6738] (first compound max 10 µM, 7x7, partner max 10 µM)	0.0144	-0.0122	0.0939	-0.0205	-0.0272	-0.071	0.0294	-0.0128	-0.0527	0.0731	0.004	-0.0817	-0.0853	-0.0344	-0.0227	-0.0431	-0.0888	-0.0064	-0.0052	-0.034
CC(=O)Nc1cccc(-n2c(=O)n(C3CC3)c(=O)c3c(Nc4ccc(I)cc4F)n(C)c(=O)c(C)c32)c1 [Trametinib] + Cc1nc(-c2cn3c(n2)-c2ccc(-c4cnn(C(C)(C)C(N)=O)c4)cc2OCC3)n(C(C)C)n1 [Taselisib] (first compound max 1 µM, 7x7, partner max 10 µM)	0.0551	0.0182	0.128	0.219	0.0285	0.0658	0.148	0.0616	0.0116	0.149	-0.0116	0.0008	0.11	0.0171	0.0414	0.0046	-0.0046	0.0567	0.0416	0.0781
CC1(C)CCC(CN2CCN(c3ccc(C(=O)NS(=O)(=O)c4ccc(NCC5CCOCC5)c([N+](=O)[O-])c4)c(Oc4cnc5[nH]ccc5c4)c3)CC2)=C(c2ccc(Cl)cc2)C1 [Venetoclax] + C1CN(CCC1(C(=O)N[C@@H](CCO)C2=CC=C(C=C2)Cl)N)C3=NC=NC4=C3C=CN4 [Capivasertib] (first compound max 1 µM, 7x7, partner max 3 µM)	-0.0475	-0.0433	-0.0432	-0.0707	0.0707	-0.0286	-0.0401	-0.0806	-0.0377	-0.0437	-0.0183	0.0533	-0.0836	-0.0118	-0.016	-0.0573	-0.018	-0.0513	-0.0062	-0.0525
CC1(C)CCC(CN2CCN(c3ccc(C(=O)NS(=O)(=O)c4ccc(NCC5CCOCC5)c([N+](=O)[O-])c4)c(Oc4cnc5[nH]ccc5c4)c3)CC2)=C(c2ccc(Cl)cc2)C1 [Venetoclax] + C=CCn1c(=O)c2cnc(Nc3ccc(N4CCN(C)CC4)cc3)nc2n1-c1cccc(C(C)(C)O)n1 [AZD1775] (first compound max 1 µM, partner max 1 µM)	0.0156	-0.0081	-0.0321	-0.0236	0.0804	0.063	-0.0339	0.0202	-0.0386	0.0562	-0.0016	0.0228	-0.0568	0.0333	-0.0183	0.0109	-0.0037	-0.0202	-0.03	-0.0252
CC1(C)CCC(CN2CCN(c3ccc(C(=O)NS(=O)(=O)c4ccc(NCC5CCOCC5)c([N+](=O)[O-])c4)c(Oc4cnc5[nH]ccc5c4)c3)CC2)=C(c2ccc(Cl)cc2)C1 [Venetoclax] + CCN(CCO)CCCOc1ccc2c(Nc3cc(CC(=O)Nc4cccc(F)c4)[nH]n3)ncnc2c1 [AZD2811] (first compound max 1 µM, 7x7, partner max 1 µM)	-0.001	-0.0637	-0.0302	0.0083	0.069	-0.0357	-0.004	-0.01	0.118	-0.0223	0.0034	0.0275	-0.0232	0.051	0.0202	0.104	-0.0045	-0.023	-0.0234	-0.0621
CC1(C)CCC(CN2CCN(c3ccc(C(=O)NS(=O)(=O)c4ccc(NCC5CCOCC5)c([N+](=O)[O-])c4)c(Oc4cnc5[nH]ccc5c4)c3)CC2)=C(c2ccc(Cl)cc2)C1 [Venetoclax] + CN(C)CCCOc1ccc(-c2ccc3ncc4c(c3c2)n(C2CCOCC2)c(=O)n4C)cn1 [AZD0156] (first compound max 1 µM, 7x7, partner max 1 µM)	-0.0277	-0.0276	0.0065	-0.0638	0.0619	0.0106	-0.0404	-0.0304	0.0145	-0.0057	-0.0443	0.0254	-0.0819	0.0143	-0.0111	-0.0016	0.0177	-0.0319	-0.0468	-0.057
CC1(C)CCC(CN2CCN(c3ccc(C(=O)NS(=O)(=O)c4ccc(NCC5CCOCC5)c([N+](=O)[O-])c4)c(Oc4cnc5[nH]ccc5c4)c3)CC2)=C(c2ccc(Cl)cc2)C1 [Venetoclax] + COc1cc(Nc2ncc3c(n2)-c2ccc(Cl)cc2C(c2c(F)cccc2OC)=NC3)ccc1C(=O)O [Alisertib] (first compound max 1 µM, 7x7, partner max 10 µM)	0.003	0.0339	-0.0088	0.0268	0.192	0.13	-0.0365	-0.0147	0.0554	0.0437	0.0009	0.043	-0.0247	0.0333	0.165	0.0886	0.0471	-0.0299	0.0112	-0.0578
CC1(C)CCC(CN2CCN(c3ccc(C(=O)NS(=O)(=O)c4ccc(NCC5CCOCC5)c([N+](=O)[O-])c4)c(Oc4cnc5[nH]ccc5c4)c3)CC2)=C(c2ccc(Cl)cc2)C1 [Venetoclax] + C[C@@H]1COCCN1C2=NC(=NC(=C2)C3(CC3)[S@](=N)(=O)C)C4=C5C=CNC5=NC=C4 [AZD6738] (first compound max 1 µM, 7x7, partner max 10 µM)	-0.0368	-0.0067	-0.0559	-0.0075	0.119	-0.035	-0.112	-0.0671	-0.0137	-0.0528	-0.0511	0.0201	-0.0643	-0.0035	0.0361	-0.0619	-0.0185	-0.0167	-0.0418	-0.0342
CC1(C)CCC(CN2CCN(c3ccc(C(=O)NS(=O)(=O)c4ccc(NCC5CCOCC5)c([N+](=O)[O-])c4)c(Oc4cnc5[nH]ccc5c4)c3)CC2)=C(c2ccc(Cl)cc2)C1 [Venetoclax] + C[C@@H](Nc1cc(F)cc(F)c1)c1cc(C(=O)N(C)C)cc2c(=O)cc(N3CCOCC3)oc12 [AZD8186] (first compound max 1 µM, 7x7, partner max 3 µM)	-0.0172	0.049	-0.0361	-0.0244	-0.0141	0.0231	-0.0154	0.0107	-0.0147	0.0376	-0.0193	-0.0608	-0.0411	0.0354	0.0084	0.104	-0.0149	-0.0092	0.0104	-0.0299
CC1(C)CCC(CN2CCN(c3ccc(C(=O)NS(=O)(=O)c4ccc(NCC5CCOCC5)c([N+](=O)[O-])c4)c(Oc4cnc5[nH]ccc5c4)c3)CC2)=C(c2ccc(Cl)cc2)C1 [Venetoclax] + Cc1cc2ncnn2cc1Nc1ncc2c(n1)n(C1CCOCC1)c(=O)n2C [AZD7648] (first compound max 1 µM, 7x7, partner max 10 µM)	-0.0313	-0.0087	0.0079	-0.0288	0.11	-0.0338	-0.046	-0.0491	-0.006	-0.0423	-0.0069	0.0403	-0.0248	-0.025	0.0164	-0.0085	-0.0044	-0.04	-0.0027	-0.0387
CC1(C)CCC(CN2CCN(c3ccc(C(=O)NS(=O)(=O)c4ccc(NCC5CCOCC5)c([N+](=O)[O-])c4)c(Oc4cnc5[nH]ccc5c4)c3)CC2)=C(c2ccc(Cl)cc2)C1 [Venetoclax] + Cn1cnc2c(F)c(Nc3ccc(Br)cc3Cl)c(C(=O)NOCCO)cc21 [Selumetinib] (first compound max 1 µM, 7x7, partner max 3 µM)	-0.0091	-0.004	-0.0087	-0.0674	0.0543	0.0012	-0.0399	-0.0171	-0.026	0.0707	-0.0356	0.111	-0.0429	0.0617	0.0054	-0.0102	-0.0042	-0.0303	0.0303	-0.0378
